Assay results reported in article PMC8893300, “A Dynamic Mass Redistribution Assay for the Human Sweet Taste Receptor Uncovers G-Protein Dependent Biased Ligands” (Frontiers in Pharmacology, 2022).
Like-named read-outs stand apart in the source and are kept apart here.

Legend:
Type in all cases: cell-based
[1] = target: T1, human sweet taste receptor (hT1R2/hT1R3) coupled to Gα15 (Homo sapiens, UniProt Q7RTX0+Q8TE23); assay: FLIPR calcium mobilization assay, R2/R3 U2OS cells transduced with Gα15 baculovirus; conditions: for EC50: R2/R3 U2OS cells expressing Gα15
T1 construct: expressed in transfected cells
T1 sequence (Q8TE23 20-839): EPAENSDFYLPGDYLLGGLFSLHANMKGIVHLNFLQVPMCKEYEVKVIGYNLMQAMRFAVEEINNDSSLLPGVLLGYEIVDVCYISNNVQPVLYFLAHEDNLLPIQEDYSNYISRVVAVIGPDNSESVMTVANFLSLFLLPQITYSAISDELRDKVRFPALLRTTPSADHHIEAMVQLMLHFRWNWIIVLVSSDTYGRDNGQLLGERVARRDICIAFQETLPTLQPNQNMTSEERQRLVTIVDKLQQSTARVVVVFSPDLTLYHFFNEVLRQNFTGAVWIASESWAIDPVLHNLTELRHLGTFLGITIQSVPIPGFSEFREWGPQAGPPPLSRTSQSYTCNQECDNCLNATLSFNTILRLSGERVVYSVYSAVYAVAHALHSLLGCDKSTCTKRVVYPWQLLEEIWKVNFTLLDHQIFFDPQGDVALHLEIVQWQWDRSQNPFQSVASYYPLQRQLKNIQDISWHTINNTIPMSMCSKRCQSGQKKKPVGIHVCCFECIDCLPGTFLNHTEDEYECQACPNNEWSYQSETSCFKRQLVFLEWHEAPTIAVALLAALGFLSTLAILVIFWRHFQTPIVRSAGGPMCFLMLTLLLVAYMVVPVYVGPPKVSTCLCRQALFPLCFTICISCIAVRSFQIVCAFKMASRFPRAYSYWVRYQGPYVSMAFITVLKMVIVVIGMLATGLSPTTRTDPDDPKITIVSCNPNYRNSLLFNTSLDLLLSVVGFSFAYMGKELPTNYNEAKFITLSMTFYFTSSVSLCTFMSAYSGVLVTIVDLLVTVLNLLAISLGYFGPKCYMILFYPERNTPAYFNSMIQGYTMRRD
T1 sequence (Q7RTX0 21-852): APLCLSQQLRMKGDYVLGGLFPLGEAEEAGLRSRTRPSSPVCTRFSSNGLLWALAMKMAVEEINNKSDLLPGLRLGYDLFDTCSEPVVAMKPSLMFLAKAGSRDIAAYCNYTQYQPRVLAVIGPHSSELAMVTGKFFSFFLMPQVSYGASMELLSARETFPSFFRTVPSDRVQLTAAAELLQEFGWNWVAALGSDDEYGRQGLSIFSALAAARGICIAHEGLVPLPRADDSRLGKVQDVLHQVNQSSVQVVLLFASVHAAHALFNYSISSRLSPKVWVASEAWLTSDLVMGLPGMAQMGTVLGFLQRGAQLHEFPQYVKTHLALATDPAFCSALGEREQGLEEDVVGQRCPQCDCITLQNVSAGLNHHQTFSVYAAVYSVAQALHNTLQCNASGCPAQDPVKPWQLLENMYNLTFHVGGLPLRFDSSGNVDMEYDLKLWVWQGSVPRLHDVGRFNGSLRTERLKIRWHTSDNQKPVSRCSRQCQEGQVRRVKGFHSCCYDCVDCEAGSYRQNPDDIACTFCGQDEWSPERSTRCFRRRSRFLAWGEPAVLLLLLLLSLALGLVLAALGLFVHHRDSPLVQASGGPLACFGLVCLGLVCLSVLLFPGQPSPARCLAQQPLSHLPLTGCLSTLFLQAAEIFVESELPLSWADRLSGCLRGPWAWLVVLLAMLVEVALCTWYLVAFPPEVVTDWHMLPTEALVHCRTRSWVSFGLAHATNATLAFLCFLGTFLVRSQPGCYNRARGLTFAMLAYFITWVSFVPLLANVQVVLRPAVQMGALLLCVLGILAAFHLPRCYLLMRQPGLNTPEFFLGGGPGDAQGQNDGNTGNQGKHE
Procedure: The Gα15 coding sequence was inserted in the HindIII-NotI sites and recombinant virus was generated using the Bac-to-Bac system (Life Technologies). Virus was further amplified by propagation in Sf9 cells grown in suspension using Sf900-II media. Virus titers were determined by plaque assay on Sf9 cells.
Cells were gently mixed with the virus at a multiplicity of infection (MOI) of 5. Using a multidrop, 70 μl per well of the cell and virus mixture was dispensed in a 384-well clear bottom plate (Fisher). After 24 h of incubation in a humidified 37°C tissue culture incubator, trichostatin A was added to a final concentration of 0.3 μM and the cells were incubated for another 18–24 h at 34°C. On the day of the experiment, cells were loaded with 4 μM of the calcium indicator Fluo-4 AM (Invitrogen) in D-PBS for 1 h at room temperature. After washing the cells with D-PBS using a cell washer (BioTek) and a 30-minute rest time, the cell plate and the compound plate were transferred into the FLIPR-Tetra (Molecular Devices). […] Loading and the FLIPR assay were run as described above. When indicated, data for agonist dose-responses were normalized to data obtained with a maximum concentration of sucralose (1 mM) and then fitted and plotted using GraphPad Prism (San Diego, CA) and non-linear regression analysis.
(§1) This value, that we termed pEC50Ratio (sucralose) or pEC50R (sucralose), was calculated with EC50 values obtained in the two assay systems. This transformation also allowed determination of an average and a standard error for the pEC50R (sucralose). The two sets of data (DMR and FLIPR data) were then analyzed with an un-paired t-test (α = 0.05). To calculate relative efficacy bias between the two assays, we captured the top asymptote value from each activity-normalized dose-response curve, as provided by the curve fit, calculated an average and a standard deviation (sd) for each agonist and then analyzed the data pairs with an un-paired t-test (α = 0.05). […] The following steps were followed: 1) Using the PRISM software, we re-analyzed each ligand’s dose-response data obtained in each assay with non-linear regression and the users-defined equation “New Operational Model with TauKa ratios” and retrieved logR values from the fits. 2) Subtracted each ligand’s logR value with that of our standard, the sucralose logR value, obtained from the same data set (each ligand dose-response assay data used in this analysis was accompanied with a sucralose dose-response ran on the same day), producing the ΔlogR value for leach ligand in each assay. 3) Calculated the mean and SEM from ΔlogR replicates (from three to nine independent dose-response analysis, in the two different assays). 4) Calculated ΔΔlogR values by subtracting the averaged ligands’ ΔlogR FLIPR values with the averaged ligands’ ΔlogR DMR values.

[2] = target: T2, human sweet taste receptor (hT1R2/hT1R3) (Homo sapiens, UniProt Q7RTX0+Q8TE23); assay: DMR assay (Epic reader) on R2/R3 U2OS cells, endogenous G proteins; conditions: for EC50: peak DMR response
T2 construct: expressed in transfected cells
T2 sequence (Q8TE23 20-839): T1 sequence (Q8TE23 20-839)
T2 sequence (Q7RTX0 21-852): T1 sequence (Q7RTX0 21-852)
Procedure: (§2) The plates were incubated in the tissue culture hood for 20 min to allow cells to settle evenly at the bottom of the microplate and further cultured at 37°C in an atmosphere of 5% CO2 for 18–24 h. The next day, the cells were subjected to functional analysis using DMR. […] When indicated, data for agonist dose-responses were normalized to data obtained with a maximum concentration of sucralose (1 mM) and then fitted and plotted using GraphPad Prism (San Diego, CA) and non-linear regression analysis.
as §1

parental U2OS cells = assay: DMR assay on parental U2OS cells (receptor-independent responses); conditions: highest concentration of sucralose (≥2 mM)
Procedure: as §2, with “DMR. The lidded Epic® 384 microplate and polypropylene compound plate (Corning) were loaded into the carousel of the Epic® reader, the target plate was washed with DMSO matched D-PBS using the Corning Epic® Liquid Handling Accessory (LHA) and equilibrated in 25 μl of DMSO matched D-PBS for 90 min.” for “DMR.”

**Q.** `OC[C@H]1O[C@H](O[C@]2(CCl)O[C@H](CCl)[C@@H](O)[C@@H]2O)[C@H](O)[C@@H](O)[C@H]1Cl` [Sucralose] was tested. Which “dose-response curve's top asymptote in the FLIPR assay” value ([1]; Gα15, relative to response at 1 mM sucralose) did it give?
**A.** 104%

**Q.** And the “Activity in FLIPR assay Emax” value ([1]; Gα15, top asymptote of dose-response normalized to 1 mM sucralose)?
**A.** 104

**Q.** And the EC50 ([1]; read-out: Activity in FLIPR assay EC50)?
**A.** 72 µM

**Q.** And the EC50 ([1]; read-out: Activity in FLIPR assay pEC50 (converted))?
**A.** 69.3 µM

**Q.** What about the “time of peak DMR response post-stimulation” value ([2]; R2/R3 U2OS cells) of the same compound?
**A.** ~4 min

**Q.** What about the EC50 ([2]; R2/R3 U2OS cells, read-out: Activity in DMR assay EC50) of the same compound?
**A.** 163 µM

**Q.** And the EC50 ([2]; R2/R3 U2OS cells, read-out: Activity in DMR assay pEC50 (converted))?
**A.** 150 µM

**Q.** And the “dose-response curve's top asymptote in the DMR assay” value ([2]; relative to response at 1 mM sucralose)?
**A.** around 122%

**Q.** And the “Activity in DMR assay Emax” value ([2]; top asymptote of dose-response normalized to 1 mM sucralose)?
**A.** 122

**Q.** And the “non-specific DMR effect on parental U2OS cells” value (parental U2OS cells)?
**A.** 20–40 pm
